# Where two headings read alike, the source gives them in different places. Ends that are not written are not given here.
# Key:
# brain [1] = settings: cited from earlier work; for Kin: rat, in vivo
# cellular uptake = test system: cellular uptake; set-up: method as in Stalmans et al.[1]; settings: cell-penetrating (CP-) response, quantitative expression of cellular influx; ref Stalmans et al.[1]; cited from earlier work
# brain [2] = settings: cited from earlier work
# BBB = settings: after i.p. injection, fluorimetry; ref [41] of S1 Table; cited from earlier work
# Description: page 6: Supplementary Information S1 Table.
# brain [3] = settings: mouse, in vivo; cited from earlier work
# [4] = test system: blood-brain barrier (BBB); assay: Multiple time regression (MTR) analysis, blood-to-brain influx; format: in vivo, ICR-CD-1 mice
# Protocol: Shortly, 200 μl of the radioiodinated CPP solution (30000 cpm/μl) was injected into the right jugular externalis vein of anesthetized ICR-CD-1 mice, which were then decapitated at 1, 3, 5, 10, 12.5 and 15 min post injection, with first and last time points performed in duplicate, after which brains were collected and measured for radioactivity using a gamma counter (Wallac Wizard 1470, Perkin Elmer). Shortly before decapitation, blood was collected from the left carotid artery, which was centrifuged (10000 g, 15 min at 21°C) in order to measure the radioactivity of blood and serum. Dermorphin and radioiodinated BSA were used as positive and negative control, respectively. The blood-to-brain entry during the experimental period of 15 min was evaluated by plotting the ratio of brain (Am(T)) and serum activity (Cp(T)), corrected for the brain weight and serum volume, respectively, versus the exposure time (Θ), expressing the theoretical steady state serum level of the iodinated peptide at a given serum concentration [37, 73]. The exposure time is calculated as the integral of the arterial serum radioactivity over time divided by the radioactivity at time t. The integral is calculated through the trapezoidal rule of the log-transformed data [73]. In the linear part of the curve, assuming a two-compartmental BBB model, data can be fitted using a linear model from which the unidirectional influx rate (Kin), also referred to as unidirectional blood to brain clearance K1 [46], and the initial brain distribution volume (Vi) can be determined using the following equation according to Gjedde and Patlak [37–40]: Am(T)/Cp(T)=Abrain(T)/Aserum(T)=Kin⋅Θ+Vi with Θ = ∫0TCp(t) ⋅ dt/Cp(T) (1)
# [5] = test system: brain parenchyma and capillaries; assay: Capillary depletion method: brain parenchyma/capillary distribution; format: in vivo, ICR-CD-1 mice; settings: mouse, in vivo, iv
# Protocol: The capillary depletion method was used to evaluate the distribution of the peptide between the brain parenchyma and capillaries. In summary (see Materials and Methods in [45]), 200 μl of a radiolabeled peptide solution (10000 cpm/μl) was injected in the jugular externalis vein of two anesthetized ICR-CD-1 mice. Ten minutes after IV injection, mice were decapitated and brains were collected and measured for radioactivity. […] The resulting homogenate was weighed and centrifuged at 5400 g for 30 min at 4°C, resulting in a pellet, i.e. capillaries, and supernatant, i.e. parenchyma and fat tissue, which were weighed and measured in the gamma counter. […] Compartmental distribution was calculated as follows: Fractioncapillaries or parenchyma (%)=[…] or parenchyma/[…]×100 (4)
# [6] = test system: blood-brain barrier (BBB); assay: Brain-to-blood transport (efflux) after intracerebroventricular injection; settings: mouse; for t1/2,brain (half-time disappearance): in vivo
# Protocol: Female, ICR-CD-1 mice (Harlan Laboratories, Venray, The Netherlands), aged 7 to 10 weeks and weighing 28–36 g, were used during the in vivo BBB transport experiments. All animal experiments were performed in accordance with the Ethical Committee principles of laboratory animal welfare. The protocol was approved by the Ethical Committee of the Faculty of Veterinary Science of Ghent University (Permit Numbers: 2009–052 and 2014–128). Prior to experiments, mice were anesthetized by intraperitoneal injection of a 40% urethane solution (3 g/kg) (Sigma-Aldrich, Diegem, Belgium).
# For evaluation of the efflux of the peptides out of the brain, 1 μl of a radioiodinated peptide solution (25000 cpm/μl) was injected in the lateral ventricle of anesthetized ICR-CD-1 mice at a speed of 360 μl/h for 10 s using a syringe pump (KDS100, KR analytical, Cheshire, UK). […] The brain half-time disappearance (t1/2,brain) was calculated from the linear regression of the natural logarithm of the residual radioactivity in brain versus time as follows: t1/2,brain=ln(2)/kout (5) with kout defined as the efflux rate constant calculated as the absolute value of the slope of the linear regression, applying first order kinetics. An extensive description of the protocol can be found elsewhere.
# [7] = test system: blood-brain barrier (BBB); assay: Classification of peptides according to their BBB influx
# Description: This peptide is derived from the murine vascular endothelial (VE)-cadherin, located in the adherens junctions between the vascular endothelial cells, and constitutes the 13 cytosolic amino acids closest to the membrane and five amino acids from the C-terminus of the transmembrane region (615–632).
# [8] = test system: blood-brain barrier (BBB); assay: Regional variation in brain influx (MTR, dissected brain regions)
# Protocol: The protocol of the multiple time regression (MTR) analysis to evaluate whether the peptides cross the BBB is described in detail elsewhere. […] Dermorphin and radioiodinated BSA were used as positive and negative control, respectively. […] The exposure time is calculated as the integral of the arterial serum radioactivity over time divided by the radioactivity at time t. The integral is calculated through the trapezoidal rule of the log-transformed data. In the linear part of the curve, assuming a two-compartmental BBB model, data can be fitted using a linear model from which the unidirectional influx rate (Kin), also referred to as unidirectional blood to brain clearance K1 [46], and the initial brain distribution volume (Vi) can be determined using the following equation according to Gjedde and Patlak: Am(T)/Cp(T)=Abrain(T)/Aserum(T)=Kin⋅Θ+Vi with Θ = ∫0TCp(t) ⋅ dt/Cp(T) (1)
# Different dissected brain regions were weighed and measured in the gamma counter. The unidirectional influx and initial distribution volume of the iodinated peptides for the different brain regions are determined using Eq 1.
# Generally, regression lines were computed using the least squares method. Regression lines of the ratio of the brain-to-serum radioactivity versus the exposure time obtained during the evaluation of the regional brain distribution and the used brain influx mechanism, were statistically compared using the Prism 6 software (GraphPad, La Jolla, USA).
# [9] = activity of the 68Ga-DOTA labeled peptide; ref [49]; cited from earlier work
# Description: For pVEC and Tat 47–57, a very high liver concentration was observed compared to the other tissues, which can indicate metabolization, but also uptake of the peptides and their metabolites in hepatocytes.
# [10] = test system: blood-brain barrier (BBB); assay: Saturability of brain influx: MTR with and without excess unlabeled peptide; set-up: species or system ICR-CD-1 mice; settings: mouse, in vivo, iv
# Protocol: This dose of 20 μg was determined based on the amount of peptide injected during a MTR experiment estimated based on the specific activity and taking into account the amount of non-radioactively iodinated peptide present in the injected dose. […] During this experiment, peptides are radiolabeled using a no-carrier added method in order that only radioactively labeled peptide was injected.
# [11] = 15 min post IV injection of radiolabeled peptide, % injected dose, n = 2, ICR-CD-1 mice; described in words
# [12] = 125I-radioiodinated, IV, ICR-CD-1 mice, MTR 1-15 min, ± 65% confidence limits
compound,measurement,setting,value
CC1(C)S[C@@H]2[C@H](NC(=O)Cc3ccccc3)C(=O)N2[C@H]1C(=O)O [Benzylpenicillin],Kin,brain [1],0.15 µL/s/g
TP10,CP-response,cellular uptake,1.641
CN1CC[C@]23c4c5ccc(O)c4O[C@H]2[C@@H](O[C@@H]2O[C@H](C(=O)O)[C@@H](O)[C@H](O)[C@H]2O)C=C[C@H]3[C@H]1C5 [Morphine-6-glucuronide],Kin,"brain [2]; in situ brain perfusion in mice, ref [6] of S1 Table",0.024 µL/s/g
Dalargin,Vd,"brain [1]; in situ brain perfusion (single time) in rats, ref [2] of S1 Table",16.7 µL/g
VIP: cargo peptide VIP alone,Brain uptake efficiency,BBB,0.78
CC(C)c1nc(CN(C)C(=O)N[C@H](C(=O)N[C@@H](Cc2ccccc2)C[C@H](O)[C@H](Cc2ccccc2)NC(=O)OCc2cncs2)C(C)C)cs1 [Ritonavir],Brain drug level,brain [3],0.1 µg/g
"YGRKKRRQRRR-NH2 [Tat 47–57, short cationic cell-penetrating peptide]","K1 (unidirectional clearance, slope of the initial phase), biphasic model",[4]; [12],13.50 ± 3.88 µL/g/min
same,"K (net clearance, slope of the plateau phase), biphasic model","[4]; mouse, in vivo, iv",0.27 ± 0.46 µL/g/min
same,"Kin (unidirectional influx rate), linear Gjedde-Patlak model","[4]; mouse, in vivo, iv",4.73 ± 1.23 µL/g/min
same,Parenchymal fraction,[5],79%
same,kout (efflux transfer constant),[6],0.21 ± 0.08 min⁻¹
same,"t1/2,brain (half-time disappearance)",[6],3 min
same,BBB influx class,[7],class 5
same,CP-response,cellular uptake,0.309
"RRLSYSRRRF-NH2 [SynB3, short cationic cell-penetrating peptide]","K1 (unidirectional clearance, slope of the initial phase), biphasic model","[4]; mouse, in vivo, iv",29.84 ± 8.42 µL/g/min
same,"Kin (unidirectional influx rate), linear Gjedde-Patlak model","[4]; mouse, in vivo, iv",5.63 ± 1.83 µL/g/min
same,Maximal ratio of brain-to-serum radioactivity,"[4]; mouse, in vivo, iv",about 70 μl/g
same,Parenchymal fraction,[5],77%
same,kout (efflux transfer constant),[6],0.05 ± 0.01 min⁻¹
same,"t1/2,brain (half-time disappearance)",[6],15 min
same,Difference in brain influx rates between the eight dissected brain regions,"[8]; mouse, in vivo",no statistically significant difference
same,BBB influx class,[7],class 5
same,CP-response,cellular uptake,0.126
COc1cccc2c1C(=O)c1c(O)c3c(c(O)c1C2=O)C[C@@](O)(C(=O)CO)C[C@@H]3O[C@H]1C[C@H](N)[C@H](O)[C@H](C)O1 [Doxorubicin],Kin,brain [1],0.25 µL/s/g
same,Vd,"brain [2]; mouse, in vivo",< 100 µL/g
"^68Ga-DOTA labeled pVEC: 68Ga-DOTA labeled pVEC of a literature study (TLLIILRRRIRKQAHAHS; also: 68Ga-DOTA label (site not given here); UniProt P55284 615-632, looked up, fragment)",(human) serum half-life,[9],a few hours
"LLIILRRRIRKQAHAHSK-NH2 [pVEC, cell-penetrating peptide derived from murine VE-cadherin (615–632); tested radioiodinated]","Kin (unidirectional influx rate), linear Gjedde-Patlak model","[4]; mouse, in vivo, iv",6.02 ± 0.29 µL/g/min
same,Maximal ratio of brain-to-serum radioactivity,"[4]; mouse, in vivo, iv",about 180 μl/g
same,Parenchymal fraction,[5],80%
same,kout (efflux transfer constant),[6],0.10 ± 0.11 min⁻¹
same,Difference in brain influx rates between the eight dissected brain regions,"[8]; mouse, in vivo",significantly differed
same,"Kin, cerebellum","[8]; mouse, in vivo, iv","5.61 [5.12, 6.10] μl/(g × min)"
same,"Kin, frontal cortex","[8]; mouse, in vivo, iv","4.84 [4.66, 5.02] μl/(g × min)"
same,"Kin, hippocampus","[8]; mouse, in vivo, iv","3.94 [3.51, 4.37] μl/(g × min)"
same,"Kin, midbrain","[8]; mouse, in vivo, iv","5.32 [5.17, 5.46] μl/(g × min)"
same,"Kin, occipital and parietal cortex","[8]; mouse, in vivo, iv","5.03 [4.73, 5.32] μl/(g × min)"
same,"Kin, pons medulla","[8]; mouse, in vivo, iv","4.51 [3.87, 5.15] μl/(g × min)"
same,"Kin, striatum","[8]; mouse, in vivo, iv","4.07 [3.77, 4.37] μl/(g × min)"
same,"Kin, thalamus and hypothalamus","[8]; mouse, in vivo, iv","4.12 [3.86, 4.38] μl/(g × min)"
same,"Kin, whole brain","[8]; mouse, in vivo, iv","6.04 [5.78, 6.30] μl/(g × min)"
same,"Vi, cerebellum","[8]; mouse, in vivo, iv","21.02 [15.09, 26.95] μl/g"
same,"Vi, frontal cortex","[8]; mouse, in vivo, iv","12.93 [10.77, 15.09] μl/g"
same,"Vi, hippocampus","[8]; mouse, in vivo, iv","9.33 [4.13, 14.54] μl/g"
same,"Vi, midbrain","[8]; mouse, in vivo, iv","13.88 [12.15, 15.62] μl/g"
same,"Vi, occipital and parietal cortex","[8]; mouse, in vivo, iv","16.61 [13.02, 20.19] μl/g"
same,"Vi, pons medulla","[8]; mouse, in vivo, iv","36.06 [28.34, 43.78] μl/g"
same,"Vi, striatum","[8]; mouse, in vivo, iv","11.47 [7.81, 15.13] μl/g"
same,"Vi, thalamus and hypothalamus","[8]; mouse, in vivo, iv","17.72 [11.58, 17.86] μl/g"
same,"Vi, whole brain","[8]; mouse, in vivo, iv","24.37 [21.23, 27.51] μl/g"
same,Vi with excess dose of unlabeled peptide,[10],1 µL/g
same,BBB influx class,[7],class 5
same,CP-response,cellular uptake,1.318
Dermorphin [reference compound],"Kin (unidirectional influx rate), linear Gjedde-Patlak model","[4]; 125I-radioiodinated peptide, IV jugular vein 200 μl (30000 cpm/μl), anesthetized female ICR-CD-1 mice, 1-15 min, brain/serum radioactivity (gamma counter) vs exposure time, whole brain, ± 65% confidence limits, pVEC, SynB3, TP10: two experiments fitted together",0.63 ± 0.10 µL/g/min
same,"Vi (initial brain distribution volume), linear Gjedde-Patlak model","[4]; 125I-radioiodinated, IV, ICR-CD-1 mice, MTR 1-15 min, whole brain, ± 65% confidence limits",13.98 ± 0.79 µL/g
same,"K1 (unidirectional clearance, slope of the initial phase), biphasic model",[4]; [12],2.54 ± 0.50 µL/g/min
same,"K (net clearance, slope of the plateau phase), biphasic model",[4]; [12],0.03 ± 0.06 µL/g/min
same,"Vg (tissue brain distribution volume), biphasic model",[4]; [12],13.72 ± 2.17 µL/g
same,Difference in brain influx rates between the eight dissected brain regions,"[8]; comparison of slopes (Kin), Prism 6, P threshold 0.05, ICR-CD-1 mice",no statistically significant difference
same,Relative tissue distribution,[11],high liver distributions
